Measured values as given in ChEMBL document CHEMBL5352381, “Design and development of a novel series of oral bivalent BET inhibitors with potent anticancer activities” (Eur J Med Chem, 2022).

What was measured:
[1] = Cmax in CD-1 mouse at 10 mg/kg, po; format: ADME, organism-based; set-up: dose 10 mg/kg, route po; conditions: in vivo
[2] = Tmax in CD-1 mouse at 10 mg/kg, po; format: ADME, organism-based; conditions: in vivo
[3] = Observed AUC infinity in CD-1 mouse at 10 mg/kg, po; format: ADME, organism-based; set-up: dose 10 mg/kg, route po; conditions: in vivo
[4] = Half life in CD-1 mouse at 10 mg/kg, po; format: ADME, organism-based; conditions: in vivo
[5] = AUClast in CD-1 mouse at 10 mg/kg, po; format: ADME, organism-based; set-up: dose 10 mg/kg, route po; conditions: in vivo
[6] = Observed MRT infinity in CD-1 mouse at 10 mg/kg, po; format: ADME, organism-based; conditions: in vivo
[7] = test system: Ty-82; experiment: Antiproliferative activity against human Ty-82 cells incubated for 72 hrs by sulforhodamine B based cell counting kit-8 assay; format: functional; conditions: TY82, 72 h
[8] = test system: MM1.S; experiment: Antiproliferative activity against human MM1.S cells incubated for 72 hrs by sulforhodamine B based cell counting kit-8 assay; format: functional
[9] = target: Bromodomain-containing protein 4 (Homo sapiens, UniProt O60885); experiment: Inhibition of full length BRD4 (unknown origin) transfected in HEK293 cells incubated for 20 hrs measured by NanoBRET BRD4/Histone H3.3 interaction assay kit; format: cell-based

Cmax [1]	Tmax [2]	AUC(0-inf) [3]	half-life [4]	AUC(0-t) [5]	MRT [6]	IC50 [8]	IC50 [9]	SMILES	IC50 [7]
33.7 ng/mL	166 min	–	–	–	–	–	–	Cc1ccc(-n2nc(C(=O)NCCNC(=O)c3nc(-c4ccc5c(c4)N(C4CCCC4)[C@H](C)C(=O)N5C)n(-c4ccc(C)cc4)n3)nc2-c2ccc3c(c2)N(C2CCCC2)[C@H](C)C(=O)N3C)cc1	–
286 ng/mL	30 min	371 ng·h/mL	9 min	368 ng·h/mL	154 min	–	–	Cc1ccc(-n2nc(C(=O)N3CCCN(C(=O)c4nc(-c5ccc6c(c5)N(C5CCCC5)[C@H](C)C(=O)N6C)n(-c5ccc(C)cc5)n4)CC3)nc2-c2ccc3c(c2)N(C2CCCC2)[C@H](C)C(=O)N3C)cc1	–
–	–	–	–	–	–	12.6 nM	–	Cc1ccc(-n2nc(C(=O)N3CC4(C3)CN(C(=O)c3nc(-c5ccc6c(c5)N(C5CCCC5)[C@H](C)C(=O)N6C)n(-c5ccc(C)cc5)n3)C4)nc2-c2ccc3c(c2)N(C2CCCC2)[C@H](C)C(=O)N3C)cc1	76 nM
58.1 ng/mL	34.8 min	75.8 ng·h/mL	44.4 min	71.5 ng·h/mL	105 min	–	–	Cc1ccc(-n2nc(C(=O)NCCCNC(=O)c3nc(-c4ccc5c(c4)N(C4CCCC4)[C@H](C)C(=O)N5C)n(-c4ccc(C)cc4)n3)nc2-c2ccc3c(c2)N(C2CCCC2)[C@H](C)C(=O)N3C)cc1	–
33.7 ng/mL	160 min	278 ng·h/mL	6 min	205 ng·h/mL	672 min	–	–	Cc1ccc(-n2nc(C(=O)N[C@@H]3CCCC[C@H]3NC(=O)c3nc(-c4ccc5c(c4)N(C4CCCC4)[C@H](C)C(=O)N5C)n(-c4ccc(C)cc4)n3)nc2-c2ccc3c(c2)N(C2CCCC2)[C@H](C)C(=O)N3C)cc1	–
–	–	–	–	–	–	3.12 nM	66.6 nM	Cc1ccc(-n2nc(C(=O)N3CCN(C(=O)c4nc(-c5ccc6c(c5)N(C5CCCC5)[C@@H](C)C(=O)N6C)n(-c5ccc(C)cc5)n4)CC3)nc2-c2ccc3c(c2)N(C2CCCC2)[C@H](C)C(=O)N3C)cc1	16.7 nM
–	–	–	–	–	–	> 20000 nM	1730 nM	Cc1ccc(-n2nc(C(=O)N3CCNCC3)nc2-c2ccc3c(c2)N(C2CCCC2)[C@@H](C)C(=O)N3C)cc1	> 20000 nM
–	–	–	–	–	–	0.29 nM	–	Cc1ccc(-n2nc(C(=O)N3C[C@H](C)N(C(=O)c4nc(-c5ccc6c(c5)N(C5CCCC5)[C@H](C)C(=O)N6C)n(-c5ccc(C)cc5C)n4)C[C@H]3C)nc2-c2ccc3c(c2)N(C2CCCC2)[C@H](C)C(=O)N3C)c(C)c1	0.75 nM
264 ng/mL	15 min	129 ng·h/mL	29.4 min	124 ng·h/mL	64.2 min	–	–	Cc1ccc(-n2nc(C(=O)N(C)CCN(C)C(=O)c3nc(-c4ccc5c(c4)N(C4CCCC4)[C@H](C)C(=O)N5C)n(-c4ccc(C)cc4)n3)nc2-c2ccc3c(c2)N(C2CCCC2)[C@H](C)C(=O)N3C)cc1	–
–	–	–	–	–	–	47.4 nM	52.2 nM	Cc1ccc(-n2nc(C(=O)N3CCNCC3)nc2-c2ccc3c(c2)N(C2CCCC2)[C@H](C)C(=O)N3C)cc1	24.1 nM
–	–	–	–	–	–	1.77 nM	–	Cc1ccc(-n2nc(C(=O)N3C[C@H](C)N(C(=O)c4nc(-c5ccc6c(c5)N(Cc5ccccc5)[C@H](C)C(=O)N6C)n(-c5ccc(C)cc5)n4)C[C@H]3C)nc2-c2ccc3c(c2)N(Cc2ccccc2)[C@H](C)C(=O)N3C)cc1	1.12 nM
–	–	–	–	–	–	0.74 nM	–	Cc1ccc(-n2nc(C(=O)N3CCC4(CCN(C(=O)c5nc(-c6ccc7c(c6)N(C6CCCC6)[C@H](C)C(=O)N7C)n(-c6ccc(C)cc6)n5)C4)C3)nc2-c2ccc3c(c2)N(C2CCCC2)[C@H](C)C(=O)N3C)cc1	2.5 nM
–	–	–	–	–	–	0.51 nM	–	C[C@@H]1C(=O)N(C)c2ccc(-c3nc(C(=O)N4CCN(C(=O)c5nc(-c6ccc7c(c6)N(C6CCCC6)[C@H](C)C(=O)N7C)n(-c6ccc7ccccc7c6)n5)CC4)nn3-c3ccc4ccccc4c3)cc2N1C1CCCC1	0.6 nM
